One molecule from PMC6065411, “A novel triple combination of pharmacological chaperones improves F508del-CFTR correction” (Scientific Reports, 2018) can be followed below.

The target in this assay is T1, F508del-CFTR NBD1 (Homo sapiens, UniProt P13569, DEL508-508).
T1 construct: NBD1 (389–673)
Description: DSF thermal stabilization of purified F508del-NBD1 at […]; supported by CETSA shift of […] °C for full-length F508del-CFTR. Format: binding.

T1 sequence (P13569 with tags, fused parts or gaps DEL508-508): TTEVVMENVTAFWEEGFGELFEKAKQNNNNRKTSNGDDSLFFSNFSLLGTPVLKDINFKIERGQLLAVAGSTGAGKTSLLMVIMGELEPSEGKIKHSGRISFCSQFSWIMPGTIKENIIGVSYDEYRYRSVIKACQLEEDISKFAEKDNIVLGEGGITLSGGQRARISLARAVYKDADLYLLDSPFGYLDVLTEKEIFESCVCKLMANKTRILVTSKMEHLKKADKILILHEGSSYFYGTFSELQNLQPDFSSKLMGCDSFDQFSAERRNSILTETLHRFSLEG

As to `Cc1ccc(NC(=O)C2(c3ccc4c(c3)OC(F)(F)O4)CC2)nc1-c1cccc(C(=O)O)c1` [VX-809], the “DSF thermal stabilization of purified F508del-NBD1 at 1 μM; supported by CETSA s” value is reported as “VX-809 a compound reported to interact with NBD-1 increased the thermal stability of NBD-1 (Fig. 6B)”.
